Reference: publication PMC6796385, “Characterizing potential repelling volatiles for “push-pull” strategy against stem borer: a case study in Chilo auricilius” (BMC Genomics, 2019)

Target: CSP8 (chemosensory protein 8)
Test: direct fluorescence titration of purified CSP8 with the fluorescent probe, Scatchard plot
Assay type: binding, Chilo auricilius

Question: For `c1ccc(Nc2cccc3ccccc23)cc1` [1-NPN, N-phenyl-1-naphthylamine], which Kd is on record?
Answer: 4 ± 0.13 µM
